Patent publication US8658661B2, “Oxadiazole inhibitors of leukotriene production” (Boehringer Ingelheim International GmbH, priority 2010, dated 2014)

Legend:
[1] = target: T1, recombinant human FLAP protein (Homo sapiens, UniProt P20292); experiment: FLAP binding assay (SPA, displacement of [125I]L-691,831); details: membranes of sf9 cells expressing recombinant human FLAP; [125I]L-691,831 probe; read-out: FLAP binding IC50
T1 construct: made in house; host or cells: Sf9 insect cells (100,000×g membrane pellet used)
T1 sequence (P20292 1-161): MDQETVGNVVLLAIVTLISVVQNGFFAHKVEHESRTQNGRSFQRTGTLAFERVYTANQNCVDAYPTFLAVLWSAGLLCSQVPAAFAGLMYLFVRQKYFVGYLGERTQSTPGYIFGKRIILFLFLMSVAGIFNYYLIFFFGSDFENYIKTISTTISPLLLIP
Outline: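 Membranes from sf9 cells expressing human FLAP in pH 7.5 Tris buffer (MgCl2, EDTA, PMSF). Non-specific binding defined with 10 μM cold L-691,831.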

[2] = tested on: synthesis of LTB4 in human whole blood; experiment: Human whole blood assay (inhibition of LTB4 synthesis, calcimycin stimulated); format: cell-based; details: heparinized human whole blood, calcimycin 20 μM, plasma LTB4
Outline: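 Heparinized human whole blood preincubated with compound 15 min at 37 °C, then stimulated with calcimycin (20 μM final) for 30 min at 37 °C. Plasma LTB4 measured after low-speed centrifugation by antibody-based homogeneous time-resolved fluorescence.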

Row | Structure (SMILES) | IC50 [1] [nM] | IC50 [2] [nM]
1 | Cn1cc(-c2nc([C@](C)(c3ccc(-c4cnc(N)nc4)cc3)C3CCC3)no2)cn1 [Example 122, 5-(4-{(1S)-1-cyclobutyl-1-[5-(1-methyl-1H-pyrazol-4-yl)-1,2,4-oxadiazol-3-yl]ethyl}phenyl)pyrimidin-2-amine] | 140 | 3200
2 | CC(C)C(C)(c1ccc(-c2cnc(N)nc2)cc1)c1noc(NC2CCN(C)CC2)n1 (stereo not drawn) [Example 236, 5-(4-{1,2-Dimethyl-1-[5-(1-methyl-piperidin-4-ylamino)-[1,2,4]oxadiazol-3-yl]-propyl}-phenyl)-pyrimidin-2-ylamine] | 89 | 1300
3 | CC(C)[C@@](C)(c1ccc(-c2cnc(N)nc2)cc1)c1noc(-c2ccn[nH]2)n1 [Example 24, 5-(4-{(2S)-3-methyl-2-[5-(1H-pyrazol-5-yl)-1,2,4-oxadiazol-3-yl]butan-2-yl}phenyl)pyrimidin-2-amine] | 19 | 410
4 | Cn1cc(-c2nc(C(C)(c3ccc(-c4cncc(OCc5ccccc5)c4)cc3)C3CC3)no2)cn1 (stereo not drawn) [Example 290, 3-Benzyloxy-5-(4-{1-cyclopropyl-1-[5-(1-methyl-1H-pyrazol-4-yl)-[1,2,4]oxadiazol-3-yl]-ethyl}-phenyl)-pyridine] | 22 | 2000
5 | CC(C)C(C)(c1ccc(-c2cnc(N)nc2)cc1)c1noc(C2CCCCN2C(=O)OC(C)(C)C)n1 (stereo not drawn) [Example 112, tert-butyl 2-(3-{2-[4-(2-aminopyrimidin-5-yl)phenyl]-3-methylbutan-2-yl}-1,2,4-oxadiazol-5-yl)piperidine-1-carboxylate] | 190 | > 5000
6 | CC(C)C(C)(c1ccc(-c2cnc(N)nc2)cc1)c1noc(N2CCN(CCO)CC2)n1 (stereo not drawn) [Example 186, 2-[4-(3-{1-[4-(2-Amino-pyrimidin-5-yl)-phenyl]-1,2-dimethyl-propyl}-[1,2,4]oxadiazol-5-yl)-piperazin-1-yl]-ethanol] | 20 | 150
7 | CN(C)C(=O)Cn1cc(-c2nc([C@](C)(c3ccc(-c4cnc5c(c4)OCCN5)cc3)C3CC3)no2)cn1 [Example 255, 2-[4-(3-{(S)-1-Cyclopropyl-1-[4-(3,4-dihydro-2H-pyrido[3,2-b][1,4]oxazin-7-yl)-phenyl]-ethyl}-[1,2,4]oxadiazol-5-yl)-pyrazol-1-yl]-N,N-dimethyl-acetamide] | 15 | 1800

The next molecules have a lower IC50 [1] than those just listed; values first:

Row | IC50 [1] [nM] | IC50 [2] [nM] | Structure (SMILES)
8 | 14 | 370 | CC(=O)N1CCN(c2nc(C(C)(c3ccc(-c4cnc(N)nc4)cc3)C(C)C)no2)CC1 (stereo not drawn) [Example 169, 1-[4-(3-{1-[4-(2-Amino-pyrimidin-5-yl)-phenyl]-1,2-dimethyl-propyl}-[1,2,4]oxadiazol-5-yl)-piperazin-1-yl]-ethanone]
9 | 7 | 190 | Cc1nc(N)cnc1-c1ccc([C@](C)(c2noc(-c3cnn(CC(=O)N(C)C)c3)n2)C2CC2)cc1 [Example 285, 2-[4-(3-{(R)-1-[4-(5-Amino-3-methyl-pyrazin-2-yl)-phenyl]-1-cyclopropyl-ethyl}-[1,2,4]oxadiazol-5-yl)-pyrazol-1-yl]-N,N-dimethyl-acetamide]
10 | 5.5 | 87 | CC(c1ccc(-c2cnc(N)nc2)cc1)(c1noc(-c2cn[nH]c2)n1)C1CC1 (stereo not drawn) [Example 21, 5-(4-{1-cyclopropyl-1-[5-(1H-pyrazol-4-yl)-1,2,4-oxadiazol-3-yl]ethyl}phenyl)pyrimidin-2-amine]
11 | 2.3 | 31 | COCCNc1cnc(-c2nc([C@](C)(c3ccc(-c4cnc(N)nc4)cc3)C(C)C)no2)cn1 [Example 124, 5-{4-[(2S)-2-(5-{5-[(2-methoxyethyl)amino]pyrazin-2-yl} 1,2,4-oxadiazol-3-yl)-3-methylbutan-2-yl]phenyl}pyrimidin-2-amine]
12 | 1.4 | 180 | CC(C)C(C)(c1ccc(-c2cnc(N)nc2)cc1)c1noc(-c2cncs2)n1 (stereo not drawn) [Example 130, 5-(4-{3-methyl-2-[5-(1,3-thiazol-5-yl)-1,2,4-oxadiazol-3-yl]butan-2-yl}phenyl)pyrimidin-2-amine]
